In US9315546B2, “Growth hormone secretatogue receptor antagonists and uses thereof” (The Administrators of the Tulane Educational Fund, priority 2010, dated 2016):
Where “and” joins values, the source holds several entries; their conditions need not be identical. Identical values can stand only once. Where no end group is shown, it is not given here. [ ]: non-standard residue; d: D form. d2Nal = N[C@H](Cc1ccc2ccccc2c1)C(=O)O; Orn = NCCC[C@H](N)C(=O)O; GABA = NCCCC(=O)O; βAla = NCCC(=O)O

Experiments:
[1] = biological target: T1, Ghrelin/GHRP/GHS Receptor (Rattus norvegicus, UniProt O08725); experiment: In vivo GH release in rat after i.v. peptide (serum GH by RIA)
Experimental: For the in vivo assay of GH Release in rat, immature female Sprague Dawley rats were obtained from Charles River from Wilmington, Mass. After arrival they were housed at 25° C. with a 14:10 h light:dark cycle. Water and Purina rat chow were available at libitum. Pups were weaned at 21 days of age.
Immature twenty six day old female Sprague Dawley rats, 3-6 rats per treatment dose, were pretreated with pentobarbital 20 minutes before iv injection of vehicle/peptide or peptide plus stimulator. Injection was made as a 0.1 ml solution. For the non-pentobarbital treated rat assay, peptides were administered iv into the tail vein of conscious rats. All animals were sacrificed by guillotine after iv peptide or vehicle. Trunk blood was collected at +10-15 minutes […], allowed to clot, centrifuged and serum stored until assayed for GH levels by RIA. The GH RIA reagents were distributed by the NIH. Control data was collected from rats treated with only the corresponding vehicle in the absence of peptide or stimulator. Control stimulated data was collected from rats treated with stimulator alone in the absence of any peptide.

[2] = biological target: T1, Ghrelin/GHRP/GHS Receptor; experiment: GH release from cell culture of pituitary cells; type: cell-based; design: After dispersion, the cells were collected by centrifugation, wash with DMEM and placed into culture well; endogenous in cells; host or cells: dispersed primary rat pituitary cells, 4 days in culture; conditions: for Unstimulated Basal GH release: Table 8
Experimental: In vitro GH Release-Female rats of the CD-1 strain were housed in a constant temperature room at 24° C. with 14 h light and 10 h darkness. The rats were fed Purina Rat chow and water at libitum. All studies were started between 0800-1000 hours. Pituitaries of mature female Sprague Dawley rats were rapidly removed after decapitation, neurointermediate lobe discarded and then placed in a pH 7.4 buffer. The pituitaries were cut into ˜3-mm pieces and then transferred to a flask containing HEPS buffer with trypsin and incubated at 37° C. Cells were triturated several times during this period. After dispersion, the cells were collected by centrifugation, wash with DMEM and placed into culture well. Cell cultures were maintained for 4 days at 37° with 8% CO2 added to the incubator atmosphere. After 4 days in culture, cells were washed with lactated Ringer's solution adjusted to pH 7.2-7.4 and then vehicle, peptide alone or peptide plus stimulator was added to media. Incubation time was 60-120 minutes after which media was removed from each well for GH determination. The GH RIA reagents were distributed by the NIH. Control data was collected from cell cultures treated with only the corresponding vehicle in the absence of peptide or stimulator. Control stimulated data was collected from cell cultures treated with stimulator alone in the absence of any peptide.

[3] = peptide antagonist 30 μg i.v. + stimulator 0.3 μg
[4] = Table 3, peptide alone 1 μg i.v.
[5] = Table 3, peptide alone 3 μg i.v.
[6] = Table 3, peptide alone 10 μg i.v.
[7] = Table 3, peptide alone 30 μg i.v.
[8] = Table 3, peptide alone 100 μg i.v.
[9] = Table 5, peptide alone 1 μg i.v.
[10] = Table 5, peptide alone 3 μg i.v.
[11] = Table 5, peptide alone 10 μg i.v.
[12] = Pentobarbital Rats, peptide alone 30 μg i.v.
[13] = Pentobarbital Rats, peptide alone 100 μg i.v.
[14] = peptide antagonist 10 μg i.v. + stimulator 1 μg
[15] = peptide antagonist 30 μg i.v. + stimulator 1 μg
[16] = peptide antagonist 100 μg i.v. + stimulator 1 μg
[17] = Table 5, peptide alone 30 μg i.v.
[18] = Table 10, compound 10 μg/ml + stimulator 1 ng/ml
[19] = Table 10, compound 30 μg/ml + stimulator 1 ng/ml
[20] = Table 10, compound alone 10 μg/ml
[21] = Table 10, compound alone 30 μg/ml

T1 sequence (O08725 whole entry): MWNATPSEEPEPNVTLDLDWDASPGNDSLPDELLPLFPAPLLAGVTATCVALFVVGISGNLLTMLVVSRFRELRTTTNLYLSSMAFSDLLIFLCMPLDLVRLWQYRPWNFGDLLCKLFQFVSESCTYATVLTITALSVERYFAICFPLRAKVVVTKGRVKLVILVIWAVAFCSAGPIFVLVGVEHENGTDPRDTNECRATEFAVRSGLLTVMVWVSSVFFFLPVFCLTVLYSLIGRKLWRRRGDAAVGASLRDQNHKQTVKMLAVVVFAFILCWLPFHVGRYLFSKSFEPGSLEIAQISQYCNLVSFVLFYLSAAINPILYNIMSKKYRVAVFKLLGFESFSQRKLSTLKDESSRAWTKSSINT

AH[dW][dK]W[dF]K-NH2 [5-Ala-His-DTrp-DLys-Trp-DPhe-Lys-NH2]
Stimulated GH release [1, 3]: 1487 ± 397 ng/mL

DcyclohexylAla-Ala-Phe-DTrp-Lys-NH2 [3-DcyclohexylAla-Ala-Phe-DTrp-Lys-NH2]
Unstimulated Basal GH release [1, 4]: 199 ± 63 ng/mL
Unstimulated Basal GH release [1, 5]: 266 ± 68 ng/mL
Unstimulated Basal GH release [1, 6]: 199 ± 23 ng/mL
Unstimulated Basal GH release [1, 7]: 346 ± 82 ng/mL
Unstimulated Basal GH release [1, 8]: 350 ± 61 ng/mL

Alaψ[CH2NH]His-DTrp-Ala-Trp-DPhe-Lys-NH2
Unstimulated Basal GH release [1, 9]: 127 ± 32 ng/mL
Unstimulated Basal GH release [1, 10]: 147 ± 37 ng/mL

[βAla]W[dA][dW]F-NH2 [10-βAla-Trp-DAla-DTrp-Phe-NH2]
Unstimulated Basal GH release [1, 7]: 341 ± 46 ng/mL
Unstimulated Basal GH release [1, 8]: 636 ± 171 ng/mL

DAla-DβNal-Ala-Ala-DAla-Lys-NH2 [6-DAla-DβNal-Ala-Ala-DAla-Lys-NH2]
Unstimulated Basal GH release [1, 5]: 235 ± 43 ng/mL
Unstimulated Basal GH release [1, 6]: 178 ± 33 ng/mL
Unstimulated Basal GH release [1, 7]: 172 ± 15 ng/mL
Unstimulated Basal GH release [1, 8]: 185 ± 39 ng/mL

Tyr-DAla-Sar-NMePhe-NH2 [2-Tyr-DAla-Sar-NMePhe-NH2]
Stimulated GH release (P + S) ([1]; Non-Pentobarbital Rats, peptide 30 μg i.v. + stimulator 10 μg): 24 ± 6 ng/mL
Unstimulated GH release (−S) ([1]; Non-Pentobarbital Rats, peptide alone 30 μg i.v.): 18 ± 4 ng/mL

DThr-DαNal-DTrp-DPro-Arg-NH2 [5-DThr-DαNal-DTrp-DPro-Arg-NH2]
Unstimulated Basal GH release [1, 9]: 60 ± 5 ng/mL
Unstimulated Basal GH release [1, 10]: 130 ± 24 ng/mL
Unstimulated Basal GH release [1, 11]: 134 ± 31 ng/mL

[dK][d2Nal]AW[dF]K-NH2 [1-DLys-DβNal-Ala-Trp-DPhe-Lys-NH2]
Stimulated GH release (P + S) ([1]; Pentobarbital Rats, peptide 3 μg i.v. (grid head; alignment uncertain) + stimulator 0.3 μg): 5232 ± 346 ng/mL
Stimulated GH release (P + S) ([1]; Pentobarbital Rats, peptide 10 μg i.v. (grid head; alignment uncertain) + stimulator 0.3 μg): 3404 ± 396 ng/mL
Stimulated GH release (P + S) ([1]; Pentobarbital Rats, peptide 30 μg i.v. + stimulator 0.3 μg): 704 ± 169 ng/mL
Unstimulated GH release (−S) ([1]; Pentobarbital Rats, peptide alone 3 μg i.v. (grid head; alignment uncertain)): 616 ± 169 ng/mL
Unstimulated GH release (−S) ([1]; Pentobarbital Rats, peptide alone 10 μg i.v. (grid head; alignment uncertain)): 847 ± 17 ng/mL
Unstimulated GH release (−S) [1, 12]: 629 ± 146 ng/mL
Unstimulated GH release (−S) [1, 13]: 228 ± 45 ng/mL

Glyψ[CH2NH]-DβNal-DLys-Trp-DPhe-Lys-NH2
Stimulated GH release ([1]; peptide antagonist 1 μg i.v. + stimulator 1 μg): 2305 ± 320 ng/mL
Stimulated GH release ([1]; peptide antagonist 3 μg i.v. + stimulator 1 μg): 1990 ± 196 ng/mL
Stimulated GH release [1, 14]: 1550 ± 284 ng/mL
Stimulated GH release [1, 15]: 946 ± 133 ng/mL
Stimulated GH release [1, 16]: 462 ± 122 ng/mL

αγAbu-DTrp-DTrp-Orn-NH2 [3-αγAbu-DTrp-DTrp-Orn-NH2]
Unstimulated Basal GH release [1, 9]: 118 ± 16 ng/mL
Unstimulated Basal GH release [1, 11]: 126 ± 27 ng/mL
Unstimulated Basal GH release [1, 17]: 79 ± 31 ng/mL

[dA]A[dA][dW]FK-NH2 [6-DAla-Ala-DAla-DTrp-Phe-Lys-NH2]
Unstimulated Basal GH release [1, 11]: 228 ± 76 ng/mL
Unstimulated Basal GH release [1, 17]: 172 ± 14 ng/mL
Unstimulated Basal GH release ([1]; Table 5, peptide alone 100 μg i.v.): 153 ± 45 ng/mL

[dA][d2Nal][dK][dW]FK-NH2 [3-DAla-DβNal-DLys-DTrp-Phe-Lys-NH2]
Stimulated GH release (P + S) ([1]; Pentobarbital Rats, peptide 30 μg i.v. + stimulator 1 μg): 2864 ± 828 ng/mL
Stimulated GH release (P + S) ([1]; Pentobarbital Rats, peptide 100 μg i.v. + stimulator 1 μg): 1198 ± 114 ng/mL
Unstimulated GH release (−S) [1, 12]: 323 ± 50 ng/mL
Unstimulated GH release (−S) [1, 13]: 812 ± 6 ng/mL
Stimulated GH release [1, 15]: 2884 ± 828 ng/mL
Stimulated GH release [1, 16]: 1198 ± 114 ng/mL

HW[dA][dW]FK-NH2 [11-His-Trp-DAla-DTrp-Phe-LysNH2]
Unstimulated Basal GH release [1, 4]: 204 ± 44 ng/mL
Unstimulated Basal GH release [1, 5]: 127 ± 44 ng/mL
Unstimulated Basal GH release [1, 6]: 83 ± 5 ng/mL

[d2Nal]AW[dF]L-NH2 [7-DβNal-Ala-Trp-DPhe-Leu-NH2]
Unstimulated Basal GH release [1, 5]: 253 ± 79 ng/mL
Unstimulated Basal GH release [1, 6]: 277 ± 43 ng/mL
Unstimulated Basal GH release [1, 7]: 347 ± 66 ng/mL
Unstimulated Basal GH release [1, 8]: 645 ± 117 ng/mL

[GABA][dW][dW][Orn]-NH2 [9-γAbu-DTrp-DTrp-Orn-NH2]
Unstimulated Basal GH release [1, 9]: 82 ± 28 ng/mL
Unstimulated Basal GH release [1, 11]: 90 ± 5 ng/mL
Unstimulated Basal GH release [1, 17]: 113 ± 32 ng/mL

αγAbu-DTrp-DTrp-Ser-NH2 [1-αγAbu-DTrp-DTrp-Ser-NH2]
Unstimulated Basal GH release [1, 9]: 80 ± 35 ng/mL
Unstimulated Basal GH release [1, 11]: 62 ± 15 ng/mL
Unstimulated Basal GH release [1, 17]: 67 ± 8 ng/mL

Glyψ[CH2NH]-DβNal-Ala-Trp-DPhe-Lys-NH2 [1-Glyψ[CH2NH]-DβNal-Ala-Trp-DPhe-Lys-NH2]
Stimulated GH release ([1]; peptide antagonist 10 μg i.v. + stimulator 0.3 μg): 1112 ± 200 ng/mL
Stimulated GH release [1, 14]: 2307 ± 176 ng/mL and 1842 ± 454 ng/mL
Stimulated GH release [1, 3]: 578 ± 82 ng/mL
Stimulated GH release [1, 15]: 890 ± 236 ng/mL and 1135 ± 140 ng/mL

[dA][d2Nal][dA][dW]FK-NH2 [9-DAla-DβNal-DAla-DTrp-Phe-Lys-NH2]
Unstimulated Basal GH release [1, 4]: 184 ± 55 ng/mL
Unstimulated Basal GH release [1, 5]: 467 ± 201 ng/mL
Unstimulated Basal GH release [1, 6]: 244 ± 107 ng/mL

H[dW]FW[dF]K-NH2 [8-His-DTrp-Phe-Trp-DPhe-Lys-NH2]
Unstimulated Basal GH release [1, 4]: 67 ± 14 ng/mL
Unstimulated Basal GH release [1, 5]: 141 ± 53 ng/mL
Unstimulated Basal GH release [1, 6]: 197 ± 70 ng/mL
Unstimulated Basal GH release [1, 7]: 509 ± 48 ng/mL

Ser(Bzl)Lys(Ac)DTrp-p-phenylpiperidinamide
Stimulated GH release (P + S) [2, 18]: 571 ± 32 ng/mL
Stimulated GH release (P + S) [2, 19]: 399 ± 24 ng/mL
Unstimulated GH release [2, 20]: 388 ± 41 ng/mL
Unstimulated GH release [2, 21]: 273 ± 39 ng/mL

γAbuDTrp-p-[m-methoxyphenyl] piperidinamide
Stimulated GH release (P + S) ([2]; Table 11, compound 10 μg/ml + stimulator 1 ng/ml): 526 ± 27 ng/mL
Stimulated GH release (P + S) ([2]; Table 11, compound 30 μg/ml + stimulator 1 ng/ml): 428 ± 22 ng/mL
Unstimulated GH release ([2]; Table 11, compound alone 10 μg/ml): 557 ± 19 ng/mL
Unstimulated GH release ([2]; Table 11, compound alone 30 μg/ml): 378 ± 18 ng/mL

Ac-[dK]Y[dW][dW]F-NH2 [9-Ac-DLys-Tyr-DTrp-DTrp-Phe-NH2]
Unstimulated Basal GH release ([2]; peptide 3 μg/ml): 105 ± 8 ng/mL
Unstimulated Basal GH release ([2]; peptide 10 μg/ml): 950 ± 91 ng/mL
Unstimulated Basal GH release ([2]; peptide 30 μg/ml): 782 ± 56 ng/mL
Unstimulated Basal GH release ([2]; peptide 100 μg/ml): 756 ± 1 ng/mL

2-[acetylester]-3-(p-m-methoxyl phenyl) piperidinamide]-naphthalene carboxamide
Stimulated GH release (P + S) [2, 18]: 480 ± 9 ng/mL
Stimulated GH release (P + S) [2, 19]: 223 ± 22 ng/mL
Unstimulated GH release [2, 20]: 373 ± 2 ng/mL
Unstimulated GH release [2, 21]: 176 ± 11 ng/mL
